The nature of the data set: solvent given as SMILES.

Regarding `O=c1c2ccccc2nc2ccc(-c3ccc(N(c4ccccc4)c4ccccc4)cc3)cn12`, under “in ClCCl”, the emission maximum stood at 521 nm.
For `CC1(C)c2cccc(-c3nc(-c4ccccc4)nc(-c4ccccc4)n3)c2Oc2c(-n3c4ccccc4c4ccccc43)cccc21`, the emission maximum by setting is: (in C1CCCCC1) 395 nm; (in CC(C)=O) 469 nm; (in Cc1ccccc1) 419 nm; (in ClC(Cl)Cl) 454 nm.
With `Cn1nc(-c2ccc(C#N)cc2)cc1-c1ccccc1`, the emission maximum (in ClCCl) is 348 nm.
`CC1CC=C(c2ccc(-c3ccc(C=O)s3)s2)CC1` (stereo not drawn): the emission maximum (in C1CCOC1) stood at 467 nm; the emission maximum (in CC#N) was 482 nm; the emission maximum (in CCCCCC) was 445 nm; the emission maximum (in CCO) is 500 nm; the emission maximum (in OCCOCCO) was 508 nm; the emission maximum (in c1ccncc1) amounted to 483 nm.
`C[N+]1=C(/C=C/C=C2/N(CCCS(=O)(=O)[O-])c3ccccc3C2(C)C)C(C)(C)c2ccccc21` returned an emission maximum (in CS(C)=O) of 565 nm.
For the compound `CCC1(CC)c2ccccc2-c2ccc(C#Cc3ccc4ccc5cccc6ccc3c4c56)cc21`, the emission maximum by setting is: (in C1CCCCC1) 407 nm; (in C1CCOC1) 410 nm; (in CC#N) 408 nm; (in CCOC(C)=O) 406 nm; (in CN(C)C=O) 412 nm; (in Cc1ccccc1) 412 nm. Further, the emission maximum by setting is: (in ClC(Cl)Cl) 413 nm; (in ClCCl) 412 nm.
For `C/C(=C\c1ccc(Cl)cc1)c1nc2ccccc2s1`, the emission maximum is, setting by setting: (in C1CCCCC1) 390 nm; (in CO) 400 nm.
In turn, `c1ccc(N(c2ccccc2)c2ccc(-c3ccc(-c4cc(-c5ccccn5)nc(-c5ccccn5)c4)cc3)cc2)cc1` returned an emission maximum (in ClCCl) of 489 nm.
Regarding `CN(C)CCNCc1c2ccccc2cc2ccccc12`, the emission maximum amounted to 388 nm (in C1CCCCC1); 413 nm (in C1CCOC1); 389 nm (in CC#N); 387 nm (in CC(C)=O); 410 nm (in CCO); 414 nm (in CN(C)C=O). Besides, the emission maximum runs as follows: (in CO) 388 nm; (in ClC(Cl)Cl) 417 nm.
`CC[C@H](C)COc1ccc(C2=C3C(C)=C(I)C(C)=[N+]3[B-](F)(F)n3c(C)c(I)c(C)c32)cc1` displayed an emission maximum (in ClCCl) of 557 nm.
The same measure, in the same setting: with `CN(C)c1cc(-c2ccccc2)cc2ccccc12` the figure was 422 nm.
The compound `c1ccc(-c2c3ccccc3c(-c3ccc(-c4cccnc4)cc3)c3ccccc23)cc1` displayed an emission maximum (in ClCCl) of 417 nm.
For `Cc1ccc(S(=O)(=O)/N=c2\oc3cccc4c5c(-c6ccccc6)oc6cccc(c(c2-c2ccccc2)c34)c65)cc1`, the emission maximum (in ClC(Cl)Cl) was 560 nm.
As to `COc1ccc(C2=C(c3ccc(F)cc3)C(c3ccccc3)=[N+]3C2=Nc2c(-c4ccc(OC)cc4)c(-c4ccc(F)cc4)c(-c4ccccc4)n2[B-]3(F)F)cc1`, for the setting “in Cc1ccccc1”, the emission maximum came out at 692 nm.
Turning to `S=P1(c2ccccc2)C(c2ccccc2)=Cc2cc3ccccc3cc21` (stereo not drawn), for the setting “in ClCCl”, the emission maximum came to 425 nm.
With `c1cc2c3c(cccc3c1)C(N1CCOCCOCCN(C3=Nc4cccc5cccc3c45)CCOCC1)=N2`, the emission maximum (in CC#N) stood at 590 nm.
For `Cn1ncc2c3c(C#N)c4c5ccccc5n(C)c4nc3ccc21`, where the note is “in CCOC(C)=O”, the emission maximum is on record as 478 nm.
With `O=C1O/C(=C\c2cccs2)c2ccccc21`, the emission maximum (in CC#N) was found to be 438 nm.
`c1cc(-n2c3ccccc3c3ccccc32)c(-c2nc3ccccn3n2)c(-n2c3ccccc3c3ccccc32)c1`: the emission maximum (in Cc1ccccc1) came to 397 nm.
As for `Cc1cc(C)c(B(c2c(C)cc(C)cc2C)c2cc3cc(N(C)C)c4ccccc4c3c3c2ccc2ccccc23)c(C)c1`, the emission maximum runs as follows: (in C1CCCCC1) 509 nm; (in C1CCOC1) 553 nm; (in CC#N) 565 nm; (in ClC(Cl)Cl) 536 nm; (in c1ccccc1) 539 nm.
Consider `N#Cc1cccc(-c2nc(-c3ccccc3)c(-c3ccccc3)[nH]2)c1`, for which, under “in CO”, the emission maximum is 440 nm.
Take `Ic1ccc(-c2c3ccc(=[N+]4CCCCC4)cc-3oc3cc(N4CCCCC4)ccc23)cc1`: the emission maximum worked out at 592 nm (in CCO) and 590 nm (in ClCCl).
Turning to `CN(C)c1ccc(/C=C/c2ncnc3ccccc23)cc1`, the emission maximum (in C1CCCCC1) turned out to be 465 nm; the emission maximum (in C1CCOC1) is recorded as 537 nm; the emission maximum (in CC#N) is given as 572 nm; the emission maximum (in CS(C)=O) was 585 nm; the emission maximum (in ClCCl) is listed as 548 nm.
Consider `O=S(=O)([O-])c1ccc(O)c2ccccc12`, for which the emission maximum reads like this: (in C1COCCO1) 357 nm; (in CC#N) 358 nm; (in CC(C)O) 360 nm; (in CCCCO) 361 nm; (in CCO) 360 nm; (in CCOC(C)=O) 354 nm. Moreover, the emission maximum is, setting by setting: (in CN(C)C=O) 366 nm; (in CO) 361 nm; (in CS(C)=O) 370 nm.
For the compound `CCC1(CC)c2cc(/C=C/c3ccc(/C=C/c4ccc5c(c4)C(CC)(CC)c4cc(N6c7ccccc7Sc7ccccc76)ccc4-5)cc3)ccc2-c2ccc(N3c4ccccc4Sc4ccccc43)cc21`, the emission maximum was found to be 434 nm (in C1CCOC1); 457 nm (in CC#N); 455 nm (in CCCCCC); 462 nm (in Cc1ccccc1); 435 nm (in ClCCl).
As to `C(=C\c1ccncn1)/c1ccc(-c2ccc(N(c3ccccc3)c3ccccc3)cc2)cc1`, the emission maximum by setting is: (in C1CCOC1) 525 nm; (in CC#N) 599 nm; (in CCCCCCC) 445 nm; (in CS(C)=O) 609 nm; (in ClCCl) 563 nm.
Turning to `Cc1cc(N2c3ccccc3C3(c4ccccc4-c4ccccc43)c3ccccc32)c(C)cc1-c1nc(-c2ccccc2)nc(-c2ccccc2)n1`, the emission maximum (in Cc1ccccc1) was 486 nm.
Take `[NH3+]C(Cc1c[nH]c2ccccc12)C(=O)[O-]` (stereo not drawn): the emission maximum (in O) was 350 nm.
For the compound `C(=C\c1ncnc2ccccc12)/c1ccc(N2CCCCC2)cc1`, the emission maximum is reported as 480 nm (in C1CCCCC1); 540 nm (in C1CCOC1); 579 nm (in CC#N); 589 nm (in CS(C)=O); 558 nm (in ClCCl).
`Cc1cc(C)c(B(c2cc(-c3ccc(N(C)C)cc3)sc2-c2sc(-c3ccc(N(C)C)cc3)cc2P(=O)(c2ccccc2)c2ccccc2)c2c(C)cc(C)cc2C)c(C)c1` yielded an emission maximum (in CO) of 645 nm.
Take `Cc1nc(-c2ccc(N3c4ccccc4C(c4ccccc4)(c4ccccc4)c4ccccc43)cc2)cc(-c2ccc(N3c4ccccc4C(c4ccccc4)(c4ccccc4)c4ccccc43)cc2)n1`: the emission maximum turned out to be 453 nm (in Cc1ccccc1) and 458 nm (in O=P(c1ccccc1)(c1ccccc1)c1ccc2oc3ccc(P(=O)(c4ccccc4)c4ccccc4)cc3c2c1).
`COc1ccc(-c2csc(/C(C#N)=C\Nc3ccc(C#N)cc3)n2)cc1`: the emission maximum is given as 451 nm (in CC#N); 444 nm (in CCO); 453 nm (in CN(C)C=O); 441 nm (in Cc1ccccc1); 447 nm (in ClCCl).
In turn, `CCn1c2ccc(/C=C(\C#N)c3ccccc3)cc2c2cc(/C=C(\C#N)c3ccccc3)ccc21` displayed an emission maximum (in ClCCl) of 412 nm.
`Cc1ccc(C2CC(=O)Oc3c2c2nc4ccc(C)cc4nc2c2ccccc32)cc1` (stereo not drawn) returned an emission maximum (in ClC(Cl)Cl) of 442 nm.
Consider `CCC1=C(C)C2=C(c3ccc(-c4c5ccccc5c(-c5ccccc5)c5ccccc45)cc3)c3c(C)c(CC)c(C)n3[B-](F)(F)[N+]2=C1C`, for which the emission maximum runs as follows: (in CC#N) 534 nm; (in CCCCCC) 536 nm; (in CCO) 537 nm; (in CN(C)C=O) 537 nm; (in Cc1ccccc1) 539 nm; (in ClCCl) 540 nm.
Turning to `CCCCCCCCc1ccc(-c2c3cc(-c4cc(CCCCCCCC)c(-c5ccc(-c6sc(/C=C7\SC(SCC)=NC7=O)cc6CCCCCCCC)s5)s4)sc3c(-c3ccc(CCCCCCCC)s3)c3cc(-c4cc(CCCCCCCC)c(-c5ccc(-c6sc(/C=C7\SC(SCC)=NC7=O)cc6CCCCCCCC)s5)s4)sc23)s1`, the emission maximum (in ClC(Cl)Cl) is on record as 653 nm.
Take `CCCCN(CCCC)c1ccc(C#Cc2cc(C#Cc3ccc([N+](=O)[O-])cc3)c(C#Cc3ccc([N+](=O)[O-])cc3)cc2C#Cc2ccc(N(CCCC)CCCC)cc2)cc1`: under “in ClCCl”, the emission maximum came to 563 nm.
In the case of `CN1/C(=C\C=C\C2=C3C=CC(c4ccccc4)=[N+]3[B-](F)(F)n3c2ccc3-c2ccccc2)Sc2ccccc21`, the emission maximum (in CC#N) was found to be 727 nm.
`COc1ccc(C2=C3C(C)=CC(C=Cc4ccc(C(=O)OC5C[C@H]6CCC5(C)C6(C)C)cc4)=[N+]3[B-](F)(F)n3c(C)cc(C)c32)cc1` (stereo partly drawn) gave an emission maximum (in Cc1ccccc1) of 627 nm.
In the case of `Cc1ccc(N2C(c3ccccc3NS(=O)(=O)c3ccc(C)cc3)=NC(c3ccccc3)C2c2ccccc2)cc1` (stereo not drawn), where the note is “in Cc1ccccc1”, the emission maximum came out at 375 nm.
On to `CCCCCCC(CCCCCC)N1C(=O)c2cccc3c(-c4cc(OC)c(OC)c(OC)c4)ccc(c23)C1=O`, for which the emission maximum (in CCCCCC) was found to be 440.2 nm; the emission maximum (in CCCCCCCCCCCCCC) stood at 442.3 nm; the emission maximum (in CCCCCCCCCCCO) was 526.4 nm; the emission maximum (in CCCCO) stood at 572 nm; the emission maximum (in CN(C)C=O) was 618.8 nm; the emission maximum (in Cc1ccccc1) was 492.4 nm. This compound displayed an emission maximum (in ClC(Cl)Cl) of 525.1 nm.
In turn, `c1cc2ccc3[s+]c4ccc5cccc6c7cccc8c(c1)c2c3c(c87)c4c56` had an emission maximum (in ClCCl) of 643 nm.
Compound `CCCCCCOc1cc(N(CC)CC)ccc1/C=C/C(=C(C#N)C#N)c1ccc2c(c1)c1ccccc1n2CC` yielded an emission maximum (in ClCCl) of 583 nm.
For the compound `CC1=[N+]2C(=C(c3cccs3)c3ccc(C)n3[B-]2(F)F)C=C1c1cc2n(c1)[B-](F)(F)[N+]1=CC=CC1=C2c1c(C)cc(C)cc1C`, the emission maximum runs as follows: (in C1CCCCC1) 650 nm; (in CCOC(C)=O) 670 nm.

(Values after the Deep4Chem optical property database.)
